From patent US11970498B2, “CDK2 inhibitors” (BLUEPRINT MEDICINES CORPORATION, priority 2021, dated 2024)
pIC50: −log10 of the molar value.

Assays:
CDK2/Cyclin E = CDK2/Cyclin E (Homo sapiens, UniProt P24941); assay: CDK2/Cyclin E biochemical phosphorylation assay (Caliper mobility shift); settings: apparent IC50; 1.0 mM ATP or ATP Km; 1.25 nM enzyme; 25° C.; read-out: CDK2/cyclin E1 IC50
In short: (§1)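 Caliper electrophoretic separation of substrate and phosphopeptide gave apparent IC50s. Enzymes: CDK1/Cyclin B1 GST-tag 1.5 nM, CDK2/Cyclin E 1.25 nM; ATP 1.0 mM or at Km; 7.5 µM FL-peptide; pH 7.5 HEPES buffer, 1% DMSO; room temperature until 10–20% phosphorylated, then EDTA quench.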

CDK1/Cyclin B1, GST-tag = target: T1, CDK1/Cyclin B1, GST-tag (Homo sapiens, UniProt P06493); assay: CDK1/Cyclin B1 biochemical phosphorylation assay (Caliper mobility shift); settings: apparent IC50; 1.0 mM ATP or ATP Km; 1.5 nM enzyme; 25° C.
T1 construct: GST
T1 sequence (P06493 whole entry): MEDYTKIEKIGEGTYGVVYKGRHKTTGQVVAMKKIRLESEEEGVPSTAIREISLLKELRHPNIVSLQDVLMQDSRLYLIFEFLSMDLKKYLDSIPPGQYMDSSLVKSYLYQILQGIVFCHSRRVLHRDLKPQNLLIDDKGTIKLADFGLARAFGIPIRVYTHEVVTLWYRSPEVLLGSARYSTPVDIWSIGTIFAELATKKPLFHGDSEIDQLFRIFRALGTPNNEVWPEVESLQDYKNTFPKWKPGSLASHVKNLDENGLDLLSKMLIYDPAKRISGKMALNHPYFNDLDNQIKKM
T1 sequence (P14635 whole entry partner): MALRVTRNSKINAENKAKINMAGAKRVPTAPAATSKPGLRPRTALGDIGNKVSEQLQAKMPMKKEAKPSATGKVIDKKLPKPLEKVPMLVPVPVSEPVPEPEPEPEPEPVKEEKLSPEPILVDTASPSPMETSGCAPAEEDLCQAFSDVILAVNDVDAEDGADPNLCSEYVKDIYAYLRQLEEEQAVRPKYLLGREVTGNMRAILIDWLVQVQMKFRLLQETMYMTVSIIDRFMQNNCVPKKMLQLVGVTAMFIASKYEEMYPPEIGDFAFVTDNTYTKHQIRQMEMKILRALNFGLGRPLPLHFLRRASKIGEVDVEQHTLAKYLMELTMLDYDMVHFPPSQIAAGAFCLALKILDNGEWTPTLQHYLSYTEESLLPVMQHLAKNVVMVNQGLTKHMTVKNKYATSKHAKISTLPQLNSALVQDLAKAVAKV
In short: as §1

SMILES | pIC50 (CDK2/Cyclin E) | pIC50 (CDK1/Cyclin B1, GST-tag)
CC1(Cn2ncc3ncc(Nc4cc(OC(F)F)[nH]n4)nc32)CC1 [Example 98, N-(5-(difluoromethoxy)-1H-pyrazol-3-yl)-1-((1-methylcyclopropyl)methyl)-1H-pyrazolo[3,4-b]pyrazin-6-amine] | 7.70 to 8.00 | ≤ 6.30
FC(F)Oc1cc(Nc2cnc3cnn(CC4CC5CCC(C4)O5)c3n2)n[nH]1 (stereo not drawn) [Example 99, 1-((8-oxabicyclo[3.2.1]octan-3-yl)methyl)-N-(5-(difluoromethoxy)-1H-pyrazol-3-yl)-1H-pyrazolo[3,4-b]pyrazin-6-amine] | ≥ 8.00 | ≤ 6.30
CC(C)Cn1ncc2ncc(Nc3cc(OC(F)F)[nH]n3)nc21 [Example 100, N-(5-(difluoromethoxy)-1H-pyrazol-3-yl)-1-isobutyl-1H-pyrazolo[3,4-b]pyrazin-6-amine] | 7.70 to 8.00 | ≤ 6.30
FC(F)Oc1cc(Nc2cnc3cnn(CC4CCC4)c3n2)n[nH]1 [Example 101, 1-(cyclobutylmethyl)-N-(5-(difluoromethoxy)-1H-pyrazol-3-yl)-1H-pyrazolo[3,4-b]pyrazin-6-amine] | ≥ 8.00 | 6.30 to 7.00
FC(F)Oc1cc(Nc2cnc3cnn([C@H](c4ccccn4)C4CC4)c3n2)n[nH]1 [Example 102, (S)-1-(cyclopropyl(pyridin-2-yl)methyl)-N-(5-(difluoromethoxy)-1H-pyrazol-3-yl)-1H-pyrazolo[3,4-b]pyrazin-6-amine] | 7.52 to 7.70 | ≤ 6.30
FC(F)Oc1cc(Nc2cnc3cnn(C[C@@H]4CCCCO4)c3n2)n[nH]1 [Example 103, (S)-N-(5-(difluoromethoxy)-1H-pyrazol-3-yl)-1-((tetrahydro-2H-pyran-2-yl)methyl)-1H-pyrazolo[3,4-b]pyrazin-6-amine] | 7.52 to 7.70 | ≤ 6.30
FC(F)Oc1cc(Nc2cnc3cnn(CC4CCCC4)c3n2)n[nH]1 [Example 104, 1-(cyclopentylmethyl)-N-(5-(difluoromethoxy)-1H-pyrazol-3-yl)-1H-pyrazolo[3,4-b]pyrazin-6-amine] | ≥ 8.00 | 6.30 to 7.00
FC(F)Oc1cc(Nc2cnc3cnn(CC4CCCCC4)c3n2)n[nH]1 [Example 105, 1-(cyclohexylmethyl)-N-(5-(difluoromethoxy)-1H-pyrazol-3-yl)-1H-pyrazolo[3,4-b]pyrazin-6-amine] | ≥ 8.00 | 6.30 to 7.00
FC(F)Oc1cc(Nc2cnc3cnn(CC45CC(C4)C5)c3n2)n[nH]1 [Example 106, 1-(bicyclo[1.1.1]pentan-1-ylmethyl)-N-(5-(difluoromethoxy)-1H-pyrazol-3-yl)-1H-pyrazolo[3,4-b]pyrazin-6-amine] | ≥ 8.00 | 6.30 to 7.00
FC(F)Oc1cc(Nc2cnc3cnn(C[C@H]4CCCCO4)c3n2)n[nH]1 [Example 107, (R)-N-(5-(difluoromethoxy)-1H-pyrazol-3-yl)-1-((tetrahydro-2H-pyran-2-yl)methyl)-1H-pyrazolo[3,4-b]pyrazin-6-amine] | 7.52 to 7.70 | ≤ 6.30
FC(F)Oc1cc(Nc2cnc3cnn(CC4CCC(F)(F)CC4)c3n2)n[nH]1 [Example 108, 1-((4,4-difluorocyclohexyl)methyl)-N-(5-(difluoromethoxy)-1H-pyrazol-3-yl)-1H-pyrazolo[3,4-b]pyrazin-6-amine] | ≥ 8.00 | ≤ 6.30
CC1(Cn2ncc3ncc(Nc4cc(OC(F)F)[nH]n4)nc32)CCOCC1 [Example 110, N-(5-(difluoromethoxy)-1H-pyrazol-3-yl)-1-((4-methyltetrahydro-2H-pyran-4-yl)methyl)-1H-pyrazolo[3,4-b]pyrazin-6-amine] | ≥ 8.00 | 6.30 to 7.00
FC(F)Oc1cc(Nc2cnc3cnn(C[C@@H]4[C@@H]5COC[C@@H]54)c3n2)n[nH]1 [Example 111, 1-(((1R,5S,6r)-3-oxabicyclo[3.1.0]hexan-6-yl)methyl)-N-(5-(difluoromethoxy)-1H-pyrazol-3-yl)-1H-pyrazolo[3,4-b]pyrazin-6-amine] | ≥ 8.00 | ≤ 6.30
FC(F)Oc1cc(Nc2cnc3cnn(CC4(F)CCOCC4)c3n2)n[nH]1 [Example 112, N-(5-(difluoromethoxy)-1H-pyrazol-3-yl)-1-((4-fluorotetrahydro-2H-pyran-4-yl)methyl)-1H-pyrazolo[3,4-b]pyrazin-6-amine] | 7.52 to 7.70 | ≤ 6.30
FC(F)Oc1cc(Nc2cnc3cnn(C[C@H]4CCCO4)c3n2)n[nH]1 [Example 113, (R)-N-(5-(difluoromethoxy)-1H-pyrazol-3-yl)-1-((tetrahydrofuran-2-yl)methyl)-1H-pyrazolo[3,4-b]pyrazin-6-amine] | 7.00 to 7.52 | ≤ 6.30
N#CC1(Cn2ncc3ncc(Nc4cc(OC(F)F)[nH]n4)nc32)CCOCC1 [Example 115, 4-((6-((5-(difluoromethoxy)-1H-pyrazol-3-yl)amino)-1H-pyrazolo[3,4-b]pyrazin-1-yl)methyl)tetrahydro-2H-pyran-4-carbonitrile] | 7.00 to 7.52 | ≤ 6.30
FC(F)Oc1cc(Nc2cnc3cnn(CC45CC(F)(C4)C5)c3n2)n[nH]1 [Example 116, N-(5-(difluoromethoxy)-1H-pyrazol-3-yl)-1-((3-fluorobicyclo[1.1.1]pentan-1-yl)methyl)-1H-pyrazolo[3,4-b]pyrazin-6-amine] | ≥ 8.00 | ≤ 6.30
Fc1nn(CC2CCOCC2)c2nc(Nc3cc(OC(F)F)[nH]n3)cnc12 [Example 117, N-(5-(difluoromethoxy)-1H-pyrazol-3-yl)-3-fluoro-1-((tetrahydro-2H-pyran-4-yl)methyl)-1H-pyrazolo[3,4-b]pyrazin-6-amine] | ≥ 8.00 | 6.30 to 7.00
FC(F)Oc1cc(Nc2cnc3cnn(CC45CCC(CC4)OC5)c3n2)n[nH]1 [Example 118, 1-((2-oxabicyclo[2.2.2]octan-4-yl)methyl)-N-(5-(difluoromethoxy)-1H-pyrazol-3-yl)-1H-pyrazolo[3,4-b]pyrazin-6-amine] | ≥ 8.00 | 6.30 to 7.00
CC1(Cn2ncc3ncc(Nc4cc(OC(F)F)[nH]n4)nc32)COC1 [Example 119, N-(5-(difluoromethoxy)-1H-pyrazol-3-yl)-1-((3-methyloxetan-3-yl)methyl)-1H-pyrazolo[3,4-b]pyrazin-6-amine] | ≥ 8.00 | ≤ 6.30
Fc1nn(Cc2cccnc2)c2nc(Nc3cc(OC(F)F)[nH]n3)cnc12 [Example 120, N-(5-(difluoromethoxy)-1H-pyrazol-3-yl)-3-fluoro-1-(pyridin-3-ylmethyl)-1H-pyrazolo[3,4-b]pyrazin-6-amine] | ≥ 8.00 | ≤ 6.30
FC(F)Oc1cc(Nc2cnc3cnn(CC4(C(F)(F)F)CCOCC4)c3n2)n[nH]1 [Example 121, N-(5-(difluoromethoxy)-1H-pyrazol-3-yl)-1-((4-(trifluoromethyl)tetrahydro-2H-pyran-4-yl)methyl)-1H-pyrazolo[3,4-b]pyrazin-6-amine] | 7.00 to 7.52 | ≤ 6.30
FC(F)Oc1cc(Nc2cnc3cnn(CC4(C(F)F)CCOCC4)c3n2)n[nH]1 [Example 122, N-(5-(difluoromethoxy)-1H-pyrazol-3-yl)-1-((4-(difluoromethyl)tetrahydro-2H-pyran-4-yl)methyl)-1H-pyrazolo[3,4-b]pyrazin-6-amine] | 7.52 to 7.70 | ≤ 6.30
COc1cc(Nc2cnc3c(F)nn([C@@H](C)C4CCOCC4)c3n2)n[nH]1 [Example 123, (S)-3-fluoro-N-(5-methoxy-1H-pyrazol-3-yl)-1-(1-(tetrahydro-2H-pyran-4-yl)ethyl)-1H-pyrazolo[3,4-b]pyrazin-6-amine] | ≥ 8.00 | ≤ 6.30
C[C@@H](C1CCOCC1)n1nc(F)c2ncc(Nc3cc(OC(F)F)[nH]n3)nc21 [Example 124, (S)-N-(5-(difluoromethoxy)-1H-pyrazol-3-yl)-3-fluoro-1-(1-(tetrahydro-2H-pyran-4-yl)ethyl)-1H-pyrazolo[3,4-b]pyrazin-6-amine] | ≥ 8.00 | 6.30 to 7.00
OC1(Cn2ncc3ncc(Nc4cc(OC(F)F)[nH]n4)nc32)CCC1 [Example 125, 1-((6-((5-(difluoromethoxy)-1H-pyrazol-3-yl)amino)-1H-pyrazolo[3,4-b]pyrazin-1-yl)methyl)cyclobutan-1-ol] | 7.52 to 7.70 | ≤ 6.30
FC(F)Oc1cc(Nc2cnc3cnn(C[C@H]4C[C@@H]5[C@H](C4)C5(F)F)c3n2)n[nH]1 [Example 126, 1-(((1R,3r,5S)-6,6-difluorobicyclo[3.1.0]hexan-3-yl)methyl)-N-(5-(difluoromethoxy)-1H-pyrazol-3-yl)-1H-pyrazolo[3,4-b]pyrazin-6-amine] | ≥ 8.00 | > 7.00
CC(C)(C1CCOCC1)n1ncc2ncc(Nc3cc(OC(F)F)[nH]n3)nc21 [Example 127, N-(5-(difluoromethoxy)-1H-pyrazol-3-yl)-1-(2-(tetrahydro-2H-pyran-4-yl)propan-2-yl)-1H-pyrazolo[3,4-b]pyrazin-6-amine] | 7.52 to 7.70 | ≤ 6.30
FC(F)Oc1cc(Nc2cnc3cnn(Cc4cccc5[nH]ncc45)c3n2)n[nH]1 [Example 128, 1-((1H-indazol-4-yl)methyl)-N-(5-(difluoromethoxy)-1H-pyrazol-3-yl)-1H-pyrazolo[3,4-b]pyrazin-6-amine] | 7.00 to 7.52 | ≤ 6.30
FC(F)Oc1cc(Nc2cnc3cnn(CCc4cn[nH]c4)c3n2)n[nH]1 [Example 129, 1-(2-(1H-pyrazol-4-yl)ethyl)-N-(5-(difluoromethoxy)-1H-pyrazol-3-yl)-1H-pyrazolo[3,4-b]pyrazin-6-amine] | ≥ 8.00 | 6.30 to 7.00
